# Measurements taken from patent publication US20190127456A1, “METHODS OF TREATING IDIOPATHIC PULMONARY FIBROSIS” (FibroGen, Inc., priority 2017, published 2019).
# How the values were obtained:
# [1] = system: radiation-induced lung fibrosis; experiment: Mouse radiation-induced lung fibrosis model: lung function by blood gas analysis; format: in vivo; conditions: blood gas analysis at 24 weeks, compared to RT with no treatment; data not shown
# Procedure: The objective of this study was to compare the activity of pamrevlumab monotherapy to either pirfenidone or nintedanib alone, and to evaluate the potential for enhanced activity of the combined agents. […] In this study, mice received thoracic irradiation (RT), followed by the therapeutic administration of the agents at 16 weeks post-irradiation when lung remodeling was evident by HRCT. After 8 weeks of drug treatment, lung density and volume were assessed by HRCT, lung function was assessed by blood gas analysis, and mice were sacrificed for histologic and gene expression analysis. C57B1/6 mice were irradiated with 14.5 Gy photons; full thorax, single dose. Treatment with therapeutic agent(s) (pamrevlumab, pirfenidone, and/or nintedanib) was initiated 16 weeks post-irradiation and continued for 8 weeks. Pamrevlumab (FG) was given IP, BIW, at 40 mg/kg; pirfenidone (PF) was given PO in chow, QD, at 300 mg/kg; nintedanib (ND) was given PO in chow, QD, at 100 mg/kg. Treatment with each agent alone, with combinations of two, and with a triple combination were carried out. Controls included non-irradiated mice, mice that were irradiated and not treated, and mice that were irradiated and given human IgG. […] The effect of the treatments on lung function was assessed by blood gas analysis (data not shown).
# [2] = system: radiation-induced lung fibrosis; experiment: Mouse radiation-induced lung fibrosis model: lung volume by HRCT; format: in vivo; conditions: 14.5 Gy irradiated mice, treated 8 weeks from week 16, measured at 24 weeks; FIG. 4
# Procedure: The objective of this study was to compare the activity of pamrevlumab monotherapy to either pirfenidone or nintedanib alone, and to evaluate the potential for enhanced activity of the combined agents. […] In this study, mice received thoracic irradiation (RT), followed by the therapeutic administration of the agents at 16 weeks post-irradiation when lung remodeling was evident by HRCT. After 8 weeks of drug treatment, lung density and volume were assessed by HRCT, lung function was assessed by blood gas analysis, and mice were sacrificed for histologic and gene expression analysis. C57B1/6 mice were irradiated with 14.5 Gy photons; full thorax, single dose. Treatment with therapeutic agent(s) (pamrevlumab, pirfenidone, and/or nintedanib) was initiated 16 weeks post-irradiation and continued for 8 weeks. Pamrevlumab (FG) was given IP, BIW, at 40 mg/kg; pirfenidone (PF) was given PO in chow, QD, at 300 mg/kg; nintedanib (ND) was given PO in chow, QD, at 100 mg/kg. Treatment with each agent alone, with combinations of two, and with a triple combination were carried out. Controls included non-irradiated mice, mice that were irradiated and not treated, and mice that were irradiated and given human IgG. Endpoint measurements were taken at 24 weeks for HRCT (lung structure), blood gas analysis (lung function), histology and gene expression analysis. […]
# [3] = Phase two study in IPF patients: treatment emergent adverse events; format: in vivo, human; conditions: Phase two trial, 48 weeks
# Procedure: A double-blind, placebo-controlled Phase two study was conducted in which 103 patients, randomized (1:1) to receive pamrevlumab or placebo, were treated for 48 weeks. Patients' self-administered the Saint George's Respiratory Questionnaire (SGRQ) to assess changes in health-related quality of life parameters over the course of the study. This questionnaire was developed for patients with chronic airflow limitation and the results correlate well with established measures of symptom level, disease activity and disability. Patients completed the SGRQ on Day 1 (baseline) and every 12 weeks thereafter during the 48-week treatment period. The SGRQ comprises three domains (symptoms, activity, and impact) with the score for each domain ranging from 0 to 100, with higher scores indicating worse health-related quality of life (Jones P W, et al. Respir Med 1991; 85:Suppl B:25-31; Barr J T et al. Clin Ther 2000; 22:1121-45).
# Patients in the Phase two clinical trial described above in Example 2 were monitored for the occurrence of treatment emergent adverse events. The percentage of patients treated with an anti-CTGF antibody (pamrevlumab) that experienced diarrhea was 16.0% compared to 7.5% for placebo treated patients. The percentage of patients treated with pamrevlumab that experienced nausea was 14.0% compared to 13.2% for placebo treated patients. […]
substance,measurement,setting,value
pamrevlumab,O2 saturation,[1],normalized O2 saturation
same,radiation-induced lung volume decrease,[2],significantly inhibited radiation-induced lung volume decrease from baseline
same,percentage of patients that experienced diarrhea,[3]; placebo 7.5%,16.0%
same,percentage of patients that experienced nausea,[3]; placebo 13.2%,14.0%
